Measured values: patent US20250353873A1, “COMPOUNDS AND METHODS FOR MODULATING APOE EXPRESSION” (Ionis Pharmaceuticals, Inc., priority 2024, published 2025)
Marks after values point to notes of the source that are not given here. Strand notation (5' to 3'): a small letter for the sugar, then the base; units joined by * are phosphorothioate-linked, units joined directly phosphodiester-linked; [ ] holds rarer units or linkages, { } end groups; capitals alone tell only the bases. e = 2'-O-(2-methoxyethyl) (MOE); k = constrained ethyl (cEt); [5mC] = 5-methylcytosine; d = 2'-deoxy (DNA)

Key:
human APOE RNA [1] = test: Dose-dependent inhibition of human APOE RNA in HepG2 cells, electroporation, 50,000 cells per well, RT-PCR normalized to GAPDH (Example 4, Tables 8-10); format: cell-based; conditions: HepG2, electroporation, 16-hour treatment
Procedure, shortened: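 HepG2 cells, 50,000 per well, electroporated with modified oligonucleotide at various concentrations. APOE RNA quantified by RT-PCR with human primer probe set RTS3073, normalized to GAPDH. Values are percent APOE RNA relative to untreated control cells.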

human APOE RNA [2] = test: Activity in APOE C57BL/6NTac-Apoeem7250 knock-in mice, single ICV bolus, 20 weeks (Example 13); format: in vivo; conditions: single ICV bolus 300 μg, 20 weeks post treatment, normalized to mouse Ppia
Procedure: Modified oligonucleotides described above were tested in the APOE C57BL/6NTac-Apoeem7250 knock-in mouse model described above.
APOE C57BL/6NTac-Apoeem7250 knock-in mice were divided into groups of 4 mice each. Each mouse received a single ICV bolus of 300 μg of modified oligonucleotide. A group of 2-4 mice received a single ICV bolus with PBS as a negative control.
Twenty weeks post treatment, mice were sacrificed and RNA was extracted from cortical brain tissue and spinal cord for quantitative real-time RT-PCR analysis of RNA expression of APOE using human primer probe set RTS3073 (described herein above). APOE RNA levels were normalized to mouse Ppia. Mouse Ppia was amplified using primer probe set m_cyclo24 (described herein above). Results are presented as percent human APOE RNA relative to the amount of human APOE RNA in PBS treated animals, (% control). Each experiment is identified in separate tables below.

| Substance | APOE RNA (% UTC) (human APOE RNA [1]; 5 nM) | APOE RNA (% UTC) (human APOE RNA [1]; 13 nM) | APOE RNA (% UTC) (human APOE RNA [1]; 33 nM) | APOE RNA (% UTC) (human APOE RNA [1]; 82 nM) | APOE RNA (% UTC) (human APOE RNA [1]; 205 nM) | APOE RNA (% UTC) (human APOE RNA [1]; 512 nM) | APOE RNA (% UTC) (human APOE RNA [1]; 1,280 nM) | APOE RNA (% UTC) (human APOE RNA [1]; 3,200 nM) | APOE RNA (% UTC) (human APOE RNA [1]; 8,000 nM) | APOE RNA (% UTC) (human APOE RNA [1]; 20,000 nM) | IC50 (human APOE RNA [1]) | APOE RNA (% control) Cortex (human APOE RNA [2]) | APOE RNA (% control) Spinal Cord (human APOE RNA [2]) |
| --- | --- | --- | --- | --- | --- | --- | --- | --- | --- | --- | --- | --- | --- |
| 1757563: mixed MOE/cEt gapmer TTGGTGAATCTTTATTAA, sugar eeeekddddddddkekee, linkages soossssssssssooss (eT*eTeGeG*kT*dG*dA*dA*dT*d[5mC]*dT*dT*dT*kAeTkT*eA*eA) [compound 1757563] | 95 % UTC | 103 % UTC | 84 % UTC | 94 % UTC | 76 % UTC | 67 % UTC | 54 % UTC | 41 % UTC | 17 % UTC | 8 % UTC | 1.38 µM | 93 % control | 71 % control |
| 1757551: mixed MOE/cEt gapmer TTGGTGAATCTTTATTAA, sugar eeekkddddddddeeeee, linkages soossssssssssooss (eT*eTeGkG*kT*dG*dA*dA*dT*d[5mC]*dT*dT*dT*eAeTeT*eA*eA) [compound 1757551] | 91 % UTC | 248 % UTC | 88 % UTC | 55 % UTC | 52 % UTC | 41 % UTC | 35 % UTC | 29 % UTC | 14 % UTC | 9 % UTC | 0.43 µM | 93 % control | 53 % control |
| 1757568 (eA*e[5mC]eTeTeG*dG*dT*dG*dA*dA*dT*d[5mC]*dT*dT*dT*kAkTeT*eA*eA; antisense) [Compound 1757568] | 86 % UTC | 87 % UTC | 104 % UTC | 96 % UTC | 93 % UTC | 63 % UTC | 47 % UTC | 31 % UTC | 21 % UTC | 19 % UTC | 1.39 µM | 73 % control | 58 % control |
| 1757565 (eA*e[5mC]eTeTkG*dG*dT*dG*dA*dA*dT*d[5mC]*dT*dT*dT*eAeTeT*eA*eA; antisense) [Compound 1757565] | 95 % UTC | 108 % UTC | 76 % UTC | 84 % UTC | 89 % UTC | 64 % UTC | 49 % UTC | 30 % UTC | 55 % UTC | 22 % UTC | 2.13 µM | 82‡ % control | 73‡ % control |
| 1757561: mixed MOE/cEt gapmer TTGGTGAATCTTTATTAA, sugar eeekkddddddddkeeee, linkages soossssssssssooss (eT*eTeGkG*kT*dG*dA*dA*dT*d[5mC]*dT*dT*dT*kAeTeT*eA*eA) [compound 1757561] | 96 % UTC | 191 % UTC | 240 % UTC | 104 % UTC | 130 % UTC | 71 % UTC | 45 % UTC | 38 % UTC | 35 % UTC | 12 % UTC | 2.09 µM | 92 % control | 64 % control |
| 1757582 (eT*eTeGkGkT*dG*dA*dA*dT*d[5mC]*dT*dT*dT*dA*dT*eTeAeA*eA*e[5mC]; antisense) [Compound 1757582] | 87 % UTC | 107 % UTC | 72 % UTC | 92 % UTC | 70 % UTC | 64 % UTC | 29 % UTC | 12 % UTC | 37 % UTC | 9 % UTC | 0.71 µM | 62 % control | 44 % control |
| 1757585 (eT*eTeGkGkT*dG*dA*dA*dT*d[5mC]*dT*dT*dT*dA*dT*kTeAeA*eA*e[5mC]; antisense) [Compound 1757585] | 45 % UTC | 49 % UTC | 44 % UTC | 38 % UTC | 33 % UTC | 53 % UTC | 19 % UTC | 32 % UTC | 12 % UTC | 1 % UTC | 0.01 µM | 62 % control | 61 % control |
| 1757541: mixed MOE/cEt gapmer TTGGTGAATCTTTATTAA, sugar eeeekddddddddeeeee, linkages soossssssssssooss (eT*eTeGeG*kT*dG*dA*dA*dT*d[5mC]*dT*dT*dT*eAeTeT*eA*eA) [compound 1757541] | 104 % UTC | 103 % UTC | 100 % UTC | 99 % UTC | 91 % UTC | 66 % UTC | 60 % UTC | 38 % UTC | 22 % UTC | 8 % UTC | 1.79 µM | 88 % control | 80 % control |
| 1757562: mixed MOE/cEt gapmer TTGGTGAATCTTTATTAA, sugar eeeekddddddddkkeee, linkages soossssssssssooss (eT*eTeGeG*kT*dG*dA*dA*dT*d[5mC]*dT*dT*dT*kAkTeT*eA*eA) [compound 1757562] | 160 % UTC | 86 % UTC | 56 % UTC | 87 % UTC | 52 % UTC | 45 % UTC | 40 % UTC | 29 % UTC | 28 % UTC | 16 % UTC | 0.57 µM | 96 % control | 88 % control |
| 1757554: mixed MOE/cEt gapmer TTGGTGAATCTTTATTAA, sugar kkeeeddddddddeeeee, linkages soossssssssssooss (kT*kTeGeG*eT*dG*dA*dA*dT*d[5mC]*dT*dT*dT*eAeTeT*eA*eA) [compound 1757554] | 91 % UTC | 113 % UTC | 101 % UTC | 106 % UTC | 89 % UTC | 71 % UTC | 52 % UTC | 27 % UTC | 28 % UTC | 13 % UTC | 1.57 µM | 95 % control | 68 % control |
